Data: patent publication US20250376458A1, “COMPOUNDS AND METHODS FOR YAP/TEAD MODULATION AND INDICATIONS THEREFOR” (OPNA BIO SA, priority 2023, published 2025)

Tested on: TEAD-dependent transcription
Test: TEAD-dependent transcription cell-based luciferase reporter assay (MSTO-211H+12XGTIIC)
Design: species or system human
Settings: Homo sapiens, MSTO-211H, 24 h, MSTO-211H+12XGTIIC cell line, 24 hours compound incubation, luminescence normalized to cell viability fluorescence signal; read-out: MSTO-211H GMean IC50 (uM) Cell Assay Reporter Cell Variant: TEAD
Excerpt: Determine Inhibitor Activity Against TEAD-Dependent Transcription in a Cell-Based Reporter Assay
The human mesothelioma cell line MSTO-211H was stably transfected with a pGL4.21 plasmid containing a synthetic promoter with 12 copies of the GTIIC TEAD response element that drives the expression of a luciferase reporter gene i using Lipofectamine transfection reagent (Thermo Fisher). Transfected cells were selected using puromycin and single cell clones expressing this construct (referred to as MSTO-211H+12XGTIIC) were generated by limiting dilution. MSTO-211H cells was characterized by genetic alterations in key components of the Hippo pathway^2, resulting in up-regulation of YAP/TEAD-mediated transcription. […] To evaluate TEAD inhibitors, the MSTO-211H+12XGTIIC cell line was seeded in a 96-well plate in 50 μL of culture media at 1×10^4 cells per well and incubated at 37° C. overnight. Serial dilutions of compounds (in total volume of 50 μL of culture media) were added to the cells and incubated at 37° C. for 24 hours. Each plate included cells treated with DMSO as high controls and cells treated with 20 μM of the reference compound K-975 (a known TEAD inhibitor)^3 as low controls. Cell viability was assayed by the addition of 25 μL of CellTiter-Fluor reagent (Promega) followed by a 30-minute incubation at 37° C. and quantification of the fluorescence signal (Ex400/Em505). Subsequently, luciferase expression was assayed by the addition of 25 μL of ONE-Glo reagent (Promega) followed by a 10-minute incubation at room temperature and quantification of the luminescence signal. The luminescence signal was normalized to the fluorescence signal to correct for any loss in cell viability over the 24-hour compound incubation period. The percentage of inhibition of normalized luminescence signal, indicative of compound-mediated inhibition of TEAD-dependent transcription, at individual compound concentrations relative to high and low controls was calculated. The data were analyzed by using nonlinear regression to generate IC50 values for individual compounds.

| Structure (SMILES) | IC50 [µM] |
| --- | --- |
| CS(=O)(=O)c1nc(C(=O)N2CCc3c(cccc3Nc3ccc(C(F)(F)F)c(F)c3)C2)c[nH]1 [O-0004, (5-((3-fluoro-4-(trifluoromethyl)phenyl)amino)-3,4-dihydroisoquinolin-2(1H)-yl)(2-(methylsulfonyl)-1H-imidazol-4-yl)methanone] | 0.001 to 10 |
| CS(=O)(=O)c1nc(C(=O)N2CCc3cc(Oc4ccc(C(F)(F)F)cc4)ccc3C2)c[nH]1 [O-0073, (2-(methylsulfonyl)-1H-imidazol-4-yl)(6-(4-(trifluoromethyl)phenoxy)-3,4-dihydroisoquinolin-2(1H)-yl)methanone] | 10 to 100 |
| CS(=O)(=O)c1nc(C(=O)N2CCc3c(cccc3Nc3ccc(C(F)(F)F)nc3)C2)c[nH]1 [O-0009, (2-(methylsulfonyl)-1H-imidazol-4-yl)(5-((6-(trifluoromethyl)pyridin-3-yl)amino)-3,4-dihydroisoquinolin-2(1H)-yl)methanone] | 10 to 100 |
| CS(=O)(=O)c1nc(C(=O)N2CCc3c(cccc3Oc3ccc(C(F)(F)F)c(F)c3)C2)c[nH]1 [O-0114, (5-(3-fluoro-4-(trifluoromethyl)phenoxy)-3,4-dihydroisoquinolin-2(1H)-yl)(2-(methylsulfonyl)-1H-imidazol-4-yl)methanone] | 0.001 to 10 |
| CS(=O)(=O)c1nc(C(=O)N2CCc3ccc(Nc4ccc(C(F)(F)F)nc4)cc3C2)c[nH]1 [O-0016, (2-(methylsulfonyl)-1H-imidazol-4-yl)(7-((6-(trifluoromethyl)pyridin-3-yl)amino)-3,4-dihydroisoquinolin-2(1H)-yl)methanone] | 10 to 100 |
| CCCS(=O)(=O)c1nc(C(=O)N2CCc3c(cccc3Oc3ccc(C(F)(F)F)cc3)C2)c[nH]1 [O-0019, (2-(propylsulfonyl)-1H-imidazol-4-yl)(5-(4-(trifluoromethyl)phenoxy)-3,4-dihydroisoquinolin-2(1H)-yl)methanone] | 0.001 to 10 |
| CCCS(=O)(=O)c1nc(C(=O)N2CCc3c(cccc3Nc3ccc(C(F)(F)F)c(F)c3)C2)c[nH]1 [O-0026, (5-((3-fluoro-4-(trifluoromethyl)phenyl)amino)-3,4-dihydroisoquinolin-2(1H)-yl)(2-(propylsulfonyl)-1H-imidazol-4-yl)methanone] | 0.001 to 10 |
| CS(=O)(=O)c1nc(C(=O)N2CCc3c(cccc3OC3CCC(F)(F)CC3)C2)c[nH]1 [O-0112, (5-((4,4-difluorocyclohexyl)oxy)-3,4-dihydroisoquinolin-2(1H)-yl)(2-(methylsulfonyl)-1H-imidazol-4-yl)methanone] | 0.001 to 10 |
| O=C(c1c[nH]c(S(=O)(=O)C2CCC2)n1)N1CCc2c(cccc2Oc2ccc(C(F)(F)F)cc2)C1 [O-0125, (2-(cyclobutylsulfonyl)-1H-imidazol-4-yl)(5-(4-(trifluoromethyl)phenoxy)-3,4-dihydroisoquinolin-2(1H)-yl)methanone] | 0.001 to 10 |
| CS(=O)(=O)c1nc(C(=O)N2CCc3ccc(Nc4ccc(C(F)(F)F)cc4)cc3C2)c[nH]1 [O-0013, (2-(methylsulfonyl)-1H-imidazol-4-yl)(7-((4-(trifluoromethyl)phenyl)amino)-3,4-dihydroisoquinolin-2(1H)-yl)methanone] | > 100 |
| CCS(=O)(=O)c1nc(C(=O)N2CCc3cc(Oc4ccc(C(F)(F)F)cc4)ccc3C2)c[nH]1 [O-0079, (2-(ethylsulfonyl)-1H-imidazol-4-yl)(6-(4-(trifluoromethyl)phenoxy)-3,4-dihydroisoquinolin-2(1H)-yl)methanone] | 0.001 to 10 |
| CCS(=O)(=O)c1nc(C(=O)N2CCc3c(ncnc3Oc3ccc(C(F)(F)F)cc3)C2)c[nH]1 [O-0130, (2-(ethylsulfonyl)-1H-imidazol-4-yl)(4-(4-(trifluoromethyl)phenoxy)-5,8-dihydropyrido[3,4-d]pyrimidin-7(6H)-yl)methanone] | 10 to 100 |
| CS(=O)(=O)c1nc(C(=O)N2CCc3cc(Oc4ccc(C(F)(F)F)c(F)c4)cnc3C2)c[nH]1 [O-0077, (3-(3-fluoro-4-(trifluoromethyl)phenoxy)-5,8-dihydro-1,7-naphthyridin-7(6H)-yl)(2-(methylsulfonyl)-1H-imidazol-4-yl)methanone] | 0.001 to 10 |
| CS(=O)(=O)c1nc(C(=O)N2CCc3ccc(Nc4ccc(C(F)(F)F)cn4)cc3C2)c[nH]1 [O-0015, (2-(methylsulfonyl)-1H-imidazol-4-yl)(7-((5-(trifluoromethyl)pyridin-2-yl)amino)-3,4-dihydroisoquinolin-2(1H)-yl)methanone] | 10 to 100 |
| Cn1c(C(=O)N2CCc3c(cccc3Nc3ccc(C(F)(F)F)cc3)C2)cnc1S(C)(=O)=O [O-0008, (1-methyl-2-(methylsulfonyl)-1H-imidazol-5-yl)(5-((4-(trifluoromethyl)phenyl)amino)-3,4-dihydroisoquinolin-2(1H)-yl)methanone] | 0.001 to 10 |
| CCS(=O)(=O)c1nc(C(=O)N2CCc3c(cccc3Nc3ccc(C(F)(F)F)cc3)C2)c[nH]1 [O-0012, (2-(ethylsulfonyl)-1H-imidazol-4-yl)(5-((4-(trifluoromethyl)phenyl)amino)-3,4-dihydroisoquinolin-2(1H)-yl)methanone] | > 100 |
| O=C(c1c[nH]c(S(=O)(=O)C2CCC2)n1)N1CCc2c(cccc2Nc2ccc(C(F)(F)F)cc2)C1 [O-0126, (2-(cyclobutylsulfonyl)-1H-imidazol-4-yl)(5-((4-(trifluoromethyl)phenyl)amino)-3,4-dihydroisoquinolin-2(1H)-yl)methanone] | 0.001 to 10 |
| CCS(=O)(=O)c1nc(C(=O)N2CCc3c(ncnc3Oc3ccc(C(F)(F)F)c(F)c3)C2)c[nH]1 [O-0113, (2-(ethylsulfonyl)-1H-imidazol-4-yl)(4-(3-fluoro-4-(trifluoromethyl)phenoxy)-5,8-dihydropyrido[3,4-d]pyrimidin-7(6H)-yl)methanone] | 0.001 to 10 |
| CS(=O)(=O)c1nc(C(=O)N2CCc3c(cccc3NC3CCC(F)(F)CC3)C2)c[nH]1 [O-0124, (5-((4,4-difluorocyclohexyl)amino)-3,4-dihydroisoquinolin-2(1H)-yl)(2-(methylsulfonyl)-1H-imidazol-4-yl)methanone] | > 100 |
| CC(C)S(=O)(=O)c1nc(C(=O)N2CCc3c(cccc3Nc3ccc(C(F)(F)F)cc3)C2)c[nH]1 [O-0022, (2-(isopropylsulfonyl)-1H-imidazol-4-yl)(5-((4-(trifluoromethyl)phenyl)amino)-3,4-dihydroisoquinolin-2(1H)-yl)methanone] | 0.001 to 10 |
| CS(=O)(=O)c1nc(C(=O)N2CCc3ccc(Nc4ccc(C(F)(F)F)cc4F)cc3C2)c[nH]1 [O-0017, (7-((2-fluoro-4-(trifluoromethyl)phenyl)amino)-3,4-dihydroisoquinolin-2(1H)-yl)(2-(methylsulfonyl)-1H-imidazol-4-yl)methanone] | 10 to 100 |
| Cn1cc(C(=O)N2CCc3c(cccc3Nc3ccc(C(F)(F)F)cn3)C2)nc1S(C)(=O)=O [O-0005, (1-methyl-2-(methylsulfonyl)-1H-imidazol-4-yl)(5-((5-(trifluoromethyl)pyridin-2-yl)amino)-3,4-dihydroisoquinolin-2(1H)-yl)methanone] | 0.001 to 10 |
| CS(=O)(=O)c1nc(C(=O)N2CCc3c(cccc3Nc3ccc(C(F)(F)F)cn3)C2)c[nH]1 [O-0003, (2-(methylsulfonyl)-1H-imidazol-4-yl)(5-((5-(trifluoromethyl)pyridin-2-yl)amino)-3,4-dihydroisoquinolin-2(1H)-yl)methanone] | 0.001 to 10 |

Same assay, conditions: MSTO-211H+12XGTIIC cell line, 24 hours compound incubation, luminescence normalized to cell viability fluorescence signal; read-out: MSTO-211H GMean IC50 (uM) Cell Assay Reporter Cell Variant: TEAD

| Structure (SMILES) | IC50 [µM] |
| --- | --- |
| CS(=O)(=O)c1nc(C(=O)N2CCc3c(ncnc3Oc3ccc(C(F)(F)F)cc3)C2)c[nH]1 [O-0119, (2-(methylsulfonyl)-1H-imidazol-4-yl)(4-(4-(trifluoromethyl)phenoxy)-5,8-dihydropyrido[3,4-d]pyrimidin-7(6H)-yl)methanone] | 0.001 to 10 |
| CCS(=O)(=O)c1nc(C(=O)N2CCc3c(ncnc3Oc3ccc(C(F)(F)F)cc3F)C2)c[nH]1 [O-0129, (2-(ethylsulfonyl)-1H-imidazol-4-yl)(4-(2-fluoro-4-(trifluoromethyl)phenoxy)-5,8-dihydropyrido[3,4-d]pyrimidin-7(6H)-yl)methanone] | 10 to 100 |
| CS(=O)(=O)c1nc(C(=O)N2CCc3ccc(Nc4ccc(C(F)(F)F)c(F)c4)cc3C2)c[nH]1 [O-0121, (7-((3-fluoro-4-(trifluoromethyl)phenyl)amino)-3,4-dihydroisoquinolin-2(1H)-yl)(2-(methylsulfonyl)-1H-imidazol-4-yl)methanone] | 0.001 to 10 |
| CS(=O)(=O)c1nc(C(=O)N2CCc3c(ncnc3Oc3ccc(C(F)(F)F)c(F)c3)C2)c[nH]1 [O-0128, (4-(3-fluoro-4-(trifluoromethyl)phenoxy)-5,8-dihydropyrido[3,4-d]pyrimidin-7(6H)-yl)(2-(methylsulfonyl)-1H-imidazol-4-yl)methanone] | 10 to 100 |
